Broadly, the Kd is the free concentration of one partner at which half of the binding sites on the other are occupied at equilibrium, for simple one-to-one binding.

Like-named read-outs stand apart in the source and are kept apart here.

One assay has as its target FGFR1 (Homo sapiens (Human), UniProt P11362). Description: Reaction Biology HotSpot kinase assay. In kind it is biochemical. The note with it: 500 nM compound; read-out: Percentage kinase inhibition FGFR1. The protocol:
(§1) The Reaction Biology Corporation (www.reactionbiology.com, Malvern, PA) HotSpot assay platform was used to measure kinase/inhibitor interactions exactly as previously described. Kinase and substrate were mixed in a buffer containing 20 mM HEPES pH 7.5, 10 mM MgCl2, 1 mM EGTA, 0.02% Brij35, 0.02 mg/mL BSA, 0.1 mM Na3VO4, 2 mM DTT and 1% DMSO. Single-dose of compounds (500 nM) were then added to each reaction mixture. After 20-minute incubation. ATP (Sigma) and [γ-^33P] ATP (Perkin Elmer) were added at a final total concentration of 100 μM for addition 2 hours at room temperature, followed by spotting onto P81 ion exchange cellulose chromatography paper (Whatman, Inc.). […] Percent remaining kinase activity of a vehicle (DMSO) containing kinase reaction was calculated for each kinase/inhibitor pair using Prism 5 (GraphPad).
as §1, with “1” for “DTT”, “incubation,” for “incubation.”

Another assay addresses FLT3 (Homo sapiens (Human), UniProt P36888). Description: Reaction Biology HotSpot kinase assay. It counts as biochemical. The note with it: 500 nM compound; for inhibition at 0.5 µM: read-out: % inhibition of FLT3 activity. The procedure:
as §1
as §1, with “1” for “DTT”, “incubation,” for “incubation.”

The target in the next assay is RET (Homo sapiens (Human), UniProt P07949). Nature of the assay: Reaction Biology HotSpot kinase assay. It counts as biochemical. The note with it: 500 nM compound; read-out: Percentage kinase inhibition RET. The procedure: as §1
as §1, with “1” for “DTT”, “incubation,” for “incubation.”

For another assay, the target named is TRKC (Homo sapiens (Human), UniProt Q16288). Description: Reaction Biology HotSpot kinase assay. It counts as biochemical. The note with it: 500 nM compound, 100 μM radiolabeled ATP. The protocol: as §1
Sequence of TRKC (Q16288 32-839): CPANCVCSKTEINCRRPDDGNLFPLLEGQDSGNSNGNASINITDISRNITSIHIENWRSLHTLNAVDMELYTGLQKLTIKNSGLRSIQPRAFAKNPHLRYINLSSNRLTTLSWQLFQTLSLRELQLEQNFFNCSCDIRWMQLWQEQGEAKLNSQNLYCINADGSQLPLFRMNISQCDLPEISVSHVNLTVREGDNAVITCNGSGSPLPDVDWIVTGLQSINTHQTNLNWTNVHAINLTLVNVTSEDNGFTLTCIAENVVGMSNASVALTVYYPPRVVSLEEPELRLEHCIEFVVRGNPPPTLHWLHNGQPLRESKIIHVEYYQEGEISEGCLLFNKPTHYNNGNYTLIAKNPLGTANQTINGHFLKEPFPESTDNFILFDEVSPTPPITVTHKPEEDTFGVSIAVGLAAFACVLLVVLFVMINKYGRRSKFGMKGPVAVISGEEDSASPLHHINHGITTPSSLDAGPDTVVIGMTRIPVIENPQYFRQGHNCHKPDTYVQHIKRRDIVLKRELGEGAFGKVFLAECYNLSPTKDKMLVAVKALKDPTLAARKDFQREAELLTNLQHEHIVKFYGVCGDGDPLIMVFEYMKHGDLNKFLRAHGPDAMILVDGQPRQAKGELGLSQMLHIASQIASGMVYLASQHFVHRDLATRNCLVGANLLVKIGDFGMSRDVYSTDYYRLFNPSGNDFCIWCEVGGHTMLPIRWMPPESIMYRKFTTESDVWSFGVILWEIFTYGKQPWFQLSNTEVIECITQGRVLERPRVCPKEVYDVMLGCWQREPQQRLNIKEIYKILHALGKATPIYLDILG
as §1, with “1” for “DTT”, “incubation,” for “incubation.”

Another assay addresses c-Src (Homo sapiens (Human), UniProt P12931). Nature of the assay: Reaction Biology HotSpot kinase assay. In kind it is biochemical. The note with it: 500 nM compound; read-out: Percentage kinase inhibition c-Src. The procedure:
as §1
as §1, with “1” for “DTT”, “incubation,” for “incubation.”

A further assay has as its target c-kit (Homo sapiens (Human), UniProt P10721). Description: Reaction Biology HotSpot kinase assay. In kind it is biochemical. The note with it: 500 nM compound, 100 μM radiolabeled ATP. The protocol:
as §1
as §1, with “1” for “DTT”, “incubation,” for “incubation.”

The next assay deals with K562. Description: IC50 proliferation assay (Alamar Blue, 72 h). In kind it is cell-based. The note with it: Homo sapiens. The procedure:
(§2) IC50 proliferation assay—Cell lines and primary cells were seeded into 96-well plates the afternoon prior to treatment. Approximately 18 hours later, compounds were semi-serially diluted in dimethyl sulfoxide (DMSO) and then growth medium, and added to cells. Plates were incubated for 72 hours prior to addition of Alamar Blue (Life Technologies, Carlsbad, CA). Plates were read after 4 additional hours of incubation at 37° C. using a Bio-Tek Synergy HT plate reader (Bio-Tek, Winooski, VT). Data was analyzed and graphed using GraphPad Prism Software (Graphpad, La Jolla. CA).
(§3) IC50 (proliferation inhibition) against leukemia cell lines MV4-11 and K562. […] MiaPaca-2 (Pancreatic cell line), HLY-1 (Lymphoma cell line), MV4-11 (AML, cell line) and K562 (CML cell line).
A general note: Alamar Blue is a resazurin reagent that responds to reducing activity.

The test system of assay [1] is MV4-11. Description: IC50 proliferation assay (Alamar Blue, 72 h). The note with it: Homo sapiens, MV4-11, 72 h; read-out: IC50 (proliferation inhibition) Cell line - MV4-11. In kind it is cell-based. The protocol:
as §2, §3

Another assay has as its system MV-4-11. Description: Proliferation inhibition at single concentration (CellTiter-Blue). It counts as cell-based. The note with it: Homo sapiens, MV4-11; 1 μM compound; read-out: Percent inhibition of proliferation MV-4-11.
In another assay the test system is HCT116. Described as above. The note with it: Homo sapiens, HCT-116; 1 μM compound; read-out: Percent inhibition of proliferation HCT116. In kind it is cell-based.
The next assay relates to HeLa. Described as above. In kind it is cell-based. The note with it: Homo sapiens, HeLa; 1 μM compound; read-out: Percent inhibition of proliferation HeLa.
The subject of a further assay is MCF-7. Described as above. In kind it is cell-based. The note with it: Homo sapiens, MCF7; 1 μM compound; read-out: Percent inhibition of proliferation MCF-7.
For a further assay, the system named is MOLM14. Nature of the assay: IC50 determination (proliferation assay, CellTiter-Blue). In kind it is cell-based. The note with it: Homo sapiens, MOLM-14. The protocol: (§4) Cell lines were seeded into 96-well plates the afternoon prior to treatment. Approximately 18 hours later, compounds were diluted in dimethyl sulfoxide (DMSO) and added to cells. Plates were incubated for 72 hours and cells viability determined with CellTiter-Blue Cell Viability Assay (Promega, Madison, WI). Plates were read after 4 additional hours of incubation at 37° C. using plate reader (Bio-Tek, Winooski. VT). Data was analyzed and graphed using GraphPad Prism Software (Graphpad. La Jolla, CA). […]

Assay [2] relates to MV4-11. Described as above. It counts as cell-based. The note with it: for IC50: Homo sapiens, MV4-11. The procedure:
as §4

In assay [3] the test system is MV4-11. Nature of the assay: Proliferation inhibition screen at 100 nM. In kind it is cell-based. The note with it: 100 nM compound, FIG. 10. The procedure:
To determine inhibition at 100 nM or […], 96-well plates were seeded the afternoon before treatment. Plates were then treated with compound diluted in dimethyl sulfoxide (DMSO) as well as a DMSO control the following day for 72 hours. After this time the plates were then treated with 10 μL of CellTiter-Blue Cell Viability Assay (Promega, Madison, WI) for 4 hours. Then the plates were read on a plate reader (Bio-Tek, Winooski, VT). Data was analyzed on Excel as a percent of the DMSO vehicle.
From these cell proliferation studies, MV4-11 appeared to be more sensitive to the compounds than the other cell lines (Table 6A). […] To identify group of compounds potently inhibiting cancer cell proliferation, a lower concentration of compounds (100 nM) were used to screen against MV4-11 (FIG. 10). From these experiments, potent amide compounds A7, A10, A15, A16, A18, A20, B15 and D30 (as indicated by ***, FIG. 10) were selected. […] Typically amides that contain basic amines are included in compound libraries to improve aqueous solubility but it appears that the presence of a basic amine in the side chain of the compounds also facilitated the actual inhibition of MV4-11 proliferation.

The subject of a further assay is NCI H1703 (NSCLC). Description: Activity against lung cancer cell line. The note with it: Homo sapiens, NCI-H1703. In kind it is cell-based.
A further assay addresses FLT3 (ITD) (Homo sapiens, UniProt P36888, ITD). Nature of the assay: DiscoverX Kd Elect binding. The note with it: read-out: Kd FLT3 (ITD). The source says:
Although the current drugs on the market or in clinical trials are relatively successful in killing the AML leukemia cells, they currently are unable to deal with secondary mutations that occur after TKI treatment, such as FLT3 ([…]).

The next assay deals with FLT3 (ITD, F691L) (Homo sapiens, UniProt P36888, F691L/ITD). Description: DiscoverX Kd Elect binding. The note with it: read-out: Kd FLT3 (ITD, F691L).
Sequence of FLT3 (ITD, F691L) (P36888 whole entry, looked up, stated change not applied): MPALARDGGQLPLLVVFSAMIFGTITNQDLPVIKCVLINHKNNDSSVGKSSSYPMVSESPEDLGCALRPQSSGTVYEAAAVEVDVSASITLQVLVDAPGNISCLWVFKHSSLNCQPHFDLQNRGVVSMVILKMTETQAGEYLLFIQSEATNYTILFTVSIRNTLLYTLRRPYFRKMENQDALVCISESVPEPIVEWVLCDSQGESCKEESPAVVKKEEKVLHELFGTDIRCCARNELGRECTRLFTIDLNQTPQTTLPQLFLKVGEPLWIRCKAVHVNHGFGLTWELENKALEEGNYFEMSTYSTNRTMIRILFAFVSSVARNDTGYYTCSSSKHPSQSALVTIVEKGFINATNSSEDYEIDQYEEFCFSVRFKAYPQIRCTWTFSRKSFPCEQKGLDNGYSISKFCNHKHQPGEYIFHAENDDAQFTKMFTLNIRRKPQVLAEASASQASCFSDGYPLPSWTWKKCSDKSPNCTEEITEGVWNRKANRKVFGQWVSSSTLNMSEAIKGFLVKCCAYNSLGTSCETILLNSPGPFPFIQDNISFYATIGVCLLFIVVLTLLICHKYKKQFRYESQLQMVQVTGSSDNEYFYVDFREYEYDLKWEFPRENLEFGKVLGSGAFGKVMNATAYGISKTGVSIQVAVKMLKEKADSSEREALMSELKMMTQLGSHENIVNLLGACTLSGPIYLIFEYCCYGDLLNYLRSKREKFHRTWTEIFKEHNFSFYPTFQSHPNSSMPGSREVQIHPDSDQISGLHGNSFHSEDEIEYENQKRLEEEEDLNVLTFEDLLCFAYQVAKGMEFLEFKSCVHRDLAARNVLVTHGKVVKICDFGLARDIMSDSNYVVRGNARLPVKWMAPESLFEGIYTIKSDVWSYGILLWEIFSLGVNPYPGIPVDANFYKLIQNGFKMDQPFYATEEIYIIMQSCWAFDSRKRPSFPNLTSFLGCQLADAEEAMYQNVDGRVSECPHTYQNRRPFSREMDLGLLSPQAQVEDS
Setting [4] is: K562, 72 h, read-out: IC50 (proliferation inhibition) Cell line - K562.
Where [5] appears, read: K562, Table 18, read-out: Inhibition of proliferation of K562 cell lines (CML).

Sequence of FLT3 (P36888 27-993): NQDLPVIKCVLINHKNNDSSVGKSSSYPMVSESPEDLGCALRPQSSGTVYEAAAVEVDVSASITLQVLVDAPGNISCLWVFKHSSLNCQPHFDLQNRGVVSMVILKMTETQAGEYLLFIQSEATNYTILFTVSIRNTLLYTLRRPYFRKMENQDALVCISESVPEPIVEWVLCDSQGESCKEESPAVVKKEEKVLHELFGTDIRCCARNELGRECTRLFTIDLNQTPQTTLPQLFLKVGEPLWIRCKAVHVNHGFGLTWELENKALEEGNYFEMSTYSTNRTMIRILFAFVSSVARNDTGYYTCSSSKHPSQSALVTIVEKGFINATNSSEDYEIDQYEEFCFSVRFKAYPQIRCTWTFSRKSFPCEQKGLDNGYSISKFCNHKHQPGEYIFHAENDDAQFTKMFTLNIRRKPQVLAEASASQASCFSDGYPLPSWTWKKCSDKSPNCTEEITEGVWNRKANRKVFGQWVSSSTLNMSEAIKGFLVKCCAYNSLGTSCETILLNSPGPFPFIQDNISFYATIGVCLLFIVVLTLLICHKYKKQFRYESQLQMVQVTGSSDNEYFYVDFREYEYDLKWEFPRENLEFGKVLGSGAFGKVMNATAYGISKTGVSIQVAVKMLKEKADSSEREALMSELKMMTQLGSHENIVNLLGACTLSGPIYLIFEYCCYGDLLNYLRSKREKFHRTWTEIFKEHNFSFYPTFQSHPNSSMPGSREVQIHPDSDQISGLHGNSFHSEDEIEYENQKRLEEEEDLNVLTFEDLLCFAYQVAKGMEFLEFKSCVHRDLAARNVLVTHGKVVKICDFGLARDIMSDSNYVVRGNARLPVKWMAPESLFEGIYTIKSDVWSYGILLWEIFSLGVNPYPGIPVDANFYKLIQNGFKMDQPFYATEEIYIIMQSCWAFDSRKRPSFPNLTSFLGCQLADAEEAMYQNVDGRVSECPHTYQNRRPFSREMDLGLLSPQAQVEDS
Sequence of c-kit (P10721 26-976): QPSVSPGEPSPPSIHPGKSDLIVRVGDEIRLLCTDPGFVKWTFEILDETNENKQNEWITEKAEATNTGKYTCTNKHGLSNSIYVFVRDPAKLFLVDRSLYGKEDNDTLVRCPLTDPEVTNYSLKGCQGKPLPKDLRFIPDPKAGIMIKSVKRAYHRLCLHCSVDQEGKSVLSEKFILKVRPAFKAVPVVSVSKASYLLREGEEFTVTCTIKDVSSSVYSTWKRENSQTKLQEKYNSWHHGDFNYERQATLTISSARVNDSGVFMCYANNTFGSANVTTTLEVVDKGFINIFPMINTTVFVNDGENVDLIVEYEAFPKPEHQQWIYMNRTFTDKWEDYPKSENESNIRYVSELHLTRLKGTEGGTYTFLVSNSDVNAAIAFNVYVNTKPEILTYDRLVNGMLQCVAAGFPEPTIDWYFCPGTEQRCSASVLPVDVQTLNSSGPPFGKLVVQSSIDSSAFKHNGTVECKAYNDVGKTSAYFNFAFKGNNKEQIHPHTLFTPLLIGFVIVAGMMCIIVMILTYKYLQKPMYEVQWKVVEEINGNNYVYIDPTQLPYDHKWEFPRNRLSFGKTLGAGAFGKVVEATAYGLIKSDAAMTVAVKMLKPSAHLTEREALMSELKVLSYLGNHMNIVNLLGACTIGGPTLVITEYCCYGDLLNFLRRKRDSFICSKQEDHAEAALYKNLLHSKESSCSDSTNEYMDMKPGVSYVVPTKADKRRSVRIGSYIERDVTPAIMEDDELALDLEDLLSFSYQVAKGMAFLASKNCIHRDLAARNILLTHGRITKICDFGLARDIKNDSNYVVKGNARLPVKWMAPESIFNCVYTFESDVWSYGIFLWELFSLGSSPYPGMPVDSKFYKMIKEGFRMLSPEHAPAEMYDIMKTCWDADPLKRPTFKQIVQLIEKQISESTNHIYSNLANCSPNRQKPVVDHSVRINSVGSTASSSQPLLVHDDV
Sequence of FGFR1 (P11362 22-822): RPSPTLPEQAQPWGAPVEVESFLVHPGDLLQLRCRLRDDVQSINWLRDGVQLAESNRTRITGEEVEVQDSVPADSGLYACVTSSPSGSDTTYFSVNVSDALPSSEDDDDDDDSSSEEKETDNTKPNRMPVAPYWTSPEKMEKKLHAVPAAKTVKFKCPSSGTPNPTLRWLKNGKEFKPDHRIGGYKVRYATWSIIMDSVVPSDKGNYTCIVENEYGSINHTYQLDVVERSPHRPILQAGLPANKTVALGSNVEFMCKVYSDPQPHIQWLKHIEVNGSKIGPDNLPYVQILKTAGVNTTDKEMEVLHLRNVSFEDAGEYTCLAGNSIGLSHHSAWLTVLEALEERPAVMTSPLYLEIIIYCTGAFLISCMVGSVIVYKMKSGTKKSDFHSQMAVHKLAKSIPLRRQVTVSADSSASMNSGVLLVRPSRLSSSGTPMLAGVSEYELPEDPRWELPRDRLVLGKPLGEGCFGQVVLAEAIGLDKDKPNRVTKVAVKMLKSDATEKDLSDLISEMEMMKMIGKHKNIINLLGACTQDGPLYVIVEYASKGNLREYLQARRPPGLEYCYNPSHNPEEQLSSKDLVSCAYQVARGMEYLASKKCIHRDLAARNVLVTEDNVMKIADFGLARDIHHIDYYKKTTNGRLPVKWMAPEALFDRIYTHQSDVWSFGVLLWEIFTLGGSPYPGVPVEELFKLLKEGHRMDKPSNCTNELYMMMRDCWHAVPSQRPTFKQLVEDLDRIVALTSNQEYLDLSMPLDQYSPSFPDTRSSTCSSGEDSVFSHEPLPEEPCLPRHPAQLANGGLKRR
Sequence of c-Src (P12931 whole entry, looked up): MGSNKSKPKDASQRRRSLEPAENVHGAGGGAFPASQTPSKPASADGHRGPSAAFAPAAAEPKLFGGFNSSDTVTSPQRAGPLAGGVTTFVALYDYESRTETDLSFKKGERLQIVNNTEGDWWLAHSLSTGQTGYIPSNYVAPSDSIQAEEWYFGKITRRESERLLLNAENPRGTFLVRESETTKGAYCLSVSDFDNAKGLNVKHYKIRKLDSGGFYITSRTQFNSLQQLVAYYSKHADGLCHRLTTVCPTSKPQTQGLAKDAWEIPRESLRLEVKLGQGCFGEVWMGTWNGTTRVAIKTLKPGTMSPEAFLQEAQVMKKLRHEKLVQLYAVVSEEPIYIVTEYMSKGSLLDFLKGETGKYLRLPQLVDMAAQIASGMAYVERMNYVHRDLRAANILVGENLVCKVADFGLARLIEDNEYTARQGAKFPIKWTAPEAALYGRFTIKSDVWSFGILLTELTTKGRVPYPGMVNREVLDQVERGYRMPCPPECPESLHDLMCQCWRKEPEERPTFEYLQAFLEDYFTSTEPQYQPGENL
Sequence of FLT3 (ITD) (P36888 whole entry, looked up, change not shown): as the sequence (P36888 whole entry, looked up, stated change not applied) above

As to `Cc1ccc(C(=O)NCCN2CCCCC2)cc1C#Cc1c(N)ncc2ccc(Cl)cc12` [HSN248], the inhibition at 0.5 µM at FGFR1 is 9%; on FLT3 it was 73%; on RET, 52%; at TRKC it was 83%; on c-Src it was 23%; at c-kit it was 93%. Besides, the IC50 in the assay with K562 (setting [4]) turned out to be 7 nM; with K562 (setting [5]), 7 ± 0.1 nM; with MV4-11 [1], 225 nM; in the assay with MOLM14, 180 ± 7.8 nM; in the assay on MV4-11 [2] it was 181 ± 6.5 nM. For the same compound, the inhibition at 1 µM was determined as 98% in the assay with MV-4-11, 76% in the assay with HCT116, 100% in the assay with HeLa and 100% with MCF-7. Further, the “proliferation inhibition in words, MV4-11 / AML” value with MV4-11 [2] was “only moderate inhibitors”.

Turning to `CCN(CC)CCNC(=O)c1ccc(C)c(C#Cc2c(N)ncc3ccc(Cl)cc23)c1` [HSN247], the inhibition at 0.5 µM on FGFR1 came to 6%; on FLT3, 74%; at RET it was 3%; at TRKC, 77%; on c-Src, 3%; against c-kit, 86%. Further, the “% inhibition of FLT3 activity” value at FLT3 was 75%. Moreover, the IC50 amounted to 25 nM with K562 (setting [4]); 25.7 ± 0.31 nM in the assay with K562 (setting [5]); 154 nM with MV4-11 [1]; 129 ± 8.2 nM with MOLM14; 154 ± 7.1 nM in the assay with MV4-11 [2]. For the same compound, the inhibition at 1 µM in the assay on MV-4-11 was 58%; in the assay with HCT116, 54%; in the assay on HeLa it was 100%; in the assay on MCF-7, 100%. In addition, in the assay with MV4-11 [2], the “proliferation inhibition in words, MV4-11 / AML” value is “only moderate inhibitors”.

In the case of `Nc1ncc2ccc(Cl)cc2c1C#Cc1ccc(C(=O)NCCCN2CCCCC2)cc1` [Compound A10], the “inhibition of MV4-11 proliferation in words” value with MV4-11 [3] is reported as “potent”.

On to `CN(C)CC(O)CNC(=O)c1ccc(C#Cc2c(N)ncc3ccc(Cl)cc23)cc1` (stereo not drawn) [Compound A15], for which, in the assay with MV4-11 [3], the “inhibition of MV4-11 proliferation in words” value was “potent”.

For `Cc1ccc2cnc(N)c(C#Cc3cc(C(=O)Nc4ccc(CN5CCN(C)CC5)c(C(F)(F)F)c4)ccc3C)c2c1` [HSN379, 3-((3-amino-6-methylisoquinolin-4-yl)ethynyl)-4-methyl-N-(4-((4-methylpiperazin-1-yl)methyl)-3-(trifluoromethyl)phenyl)benzamide], in the assay on NCI H1703 (NSCLC), the IC50 turned out to be 13 nM.

As for `Cc1ncc(C(=O)Nc2ccc(CN3CCN(C)CC3)c(C(F)(F)F)c2)cc1C#Cc1cnc(N)c2ccccc12` [HSN461, 5-((1-aminoisoquinolin-4-yl)ethynyl)-6-methyl-N-(4-((4-methylpiperazin-1-yl)methyl)-3-(trifluoromethyl)phenyl)nicotinamide], the Kd on FLT3 (ITD) turned out to be 7.9 nM; at FLT3 (ITD, F691L) it was 91 nM. Also, the values for the IC50 in the assay with MV4-11 [2] and with NCI H1703 (NSCLC) were less than 1 nM and 157 nM, respectively.

Consider `Cc1ccc(C(=O)Nc2ccc(CN3CCN(C)CC3)c(C(F)(F)F)c2)cc1C#Cc1c(N)ncc2ccccc12` [HSN352, 3-((3-aminoisoquinolin-4-yl)ethynyl)-4-methyl-N-(4-((4-methylpiperazin-1-yl)methyl)-3-(trifluoromethyl)phenyl)benzamide], for which the inhibition at 0.5 µM on FGFR1 was found to be 100%; on FLT3 it was 93%; on c-Src, 100%; on c-kit it was 78%. Also, the IC50 with K562 (setting [4]) turned out to be 2 nM; in the assay on K562 (setting [5]), 2.4 ± 0.06 nM; with MV4-11 [1], 3 nM; in the assay on MOLM14, 3.01 ± 0.1 nM; in the assay with MV4-11 [2], 3.09 ± 0.1 nM.

In the case of `CCN(CC)CC(O)CNC(=O)c1ccc(C#Cc2c(N)ncc3ccc(Cl)cc23)cc1` (stereo not drawn) [Compound A16], in the assay on MV4-11 [3], the “inhibition of MV4-11 proliferation in words” value is recorded as “potent”.

As to `Cc1ncc(C(=O)Nc2ccc(CN3CCN(C)CC3)c(C(F)(F)F)c2)cc1C#Cc1cnc(N)c2ncccc12` [HSN459, 5-((8-amino-1,7-naphthyridin-5-yl)ethynyl)-6-methyl-N-(4-((4-methylpiperazin-1-yl)methyl)-3-(trifluoromethyl)phenyl)nicotinamide], the Kd on FLT3 (ITD) amounted to 5.6 nM; on FLT3 (ITD, F691L) it was 17 nM. In addition, in the assay on NCI H1703 (NSCLC), the IC50 worked out at 38 nM.

On to `COCCCNC(=O)c1ccc(C#Cc2c(N)ncc3ccc(Cl)cc23)cc1` [Compound A25], for which the “inhibition of MV4-11 proliferation in words” value with MV4-11 [3] was “inactive”.

The values are drawn from US20250084039A1, “4-SUBSTITUTED AMINOISOQUINOLINE DERIVATIVES” (Purdue Research Foundation, priority 2016, published 2025).
